Source: patent publication US6693215B2, “Process for the preparation of salts of L-carnitine and alkanoyl L-carnitine with mucic acid” (Sigma-Tau Industrie Farmaceutiche Riunite S.p.A., priority 2002, dated 2004)

Assay: Analytical data of the compound obtained: water solubility
Format: physicochemical
Details: product of Example 1, white powder

CC(=O)OC(CC(=O)O)C[N+](C)(C)C.CC(=O)OC(CC(=O)O)C[N+](C)(C)C.O=C([O-])C(O)C(O)C(O)C(O)C(=O)[O-] [Example 1, acetyl L-carnitine mucate (2:1)]
Water solubility: Poorly soluble
